Data as given in US20230312550A1, “N-(2-(4-CYANOTHIAZOLIDIN-3-YL)-2-OXOETHYL)-QUINOLINE-4-CARBOXAMIDES” (AstraZeneca AB, priority 2020, published 2023).
Values after ≈ are worked out from the molar mass of the structure shown.

Tests used:
[1] = target: FAP (Homo sapiens (Human), UniProt Q12884); assay: hFAP inhibition assay; assay type: biochemical; details: Ala-Pro-AMC 20 μM, n = 1 or geometric mean n = 2-3
Method: 384 low volume black plates (Greiner #784076) were used. 4 μL, 0.48 nM enzyme solution (100 mM Tris HCl, 100 mM NaCl, 0.05% Chaps, pH 7.4) was added to 40 nL compounds (in DMSO) at 10 CR, 3 fold dilution series from 50 μM FAC. Plates were incubated for 15 min at rt in dark. 4 μL, 40 μM substrate solution (100 mM Tris HCl, 100 mM NaCl, 0.05% Chaps, pH 7.4) was added to each well. Plates were centrifuged at 1000 rpm and incubated for 30 min at rt in dark. The plates were read on a PHERAstar® reader with excitation 340 nm and emission 460 nm. Data were analyzed in Genedata Screener®. IC50 values were determined by plotting % inhibition versus log compound concentration and using a one site dose response model.

[2] = target: human Fibroblast activation protein alpha (hFAP) (Homo sapiens (Human), UniProt Q12884); assay: hFAP inhibition assay (tight binders); assay type: biochemical; details: Ala-Pro-AMC 20 μM, n = 1 or geometric mean n = 2-6; note: hFAP 2.4 pM
Chain of human Fibroblast activation protein alpha (hFAP) (Q12884 38-760): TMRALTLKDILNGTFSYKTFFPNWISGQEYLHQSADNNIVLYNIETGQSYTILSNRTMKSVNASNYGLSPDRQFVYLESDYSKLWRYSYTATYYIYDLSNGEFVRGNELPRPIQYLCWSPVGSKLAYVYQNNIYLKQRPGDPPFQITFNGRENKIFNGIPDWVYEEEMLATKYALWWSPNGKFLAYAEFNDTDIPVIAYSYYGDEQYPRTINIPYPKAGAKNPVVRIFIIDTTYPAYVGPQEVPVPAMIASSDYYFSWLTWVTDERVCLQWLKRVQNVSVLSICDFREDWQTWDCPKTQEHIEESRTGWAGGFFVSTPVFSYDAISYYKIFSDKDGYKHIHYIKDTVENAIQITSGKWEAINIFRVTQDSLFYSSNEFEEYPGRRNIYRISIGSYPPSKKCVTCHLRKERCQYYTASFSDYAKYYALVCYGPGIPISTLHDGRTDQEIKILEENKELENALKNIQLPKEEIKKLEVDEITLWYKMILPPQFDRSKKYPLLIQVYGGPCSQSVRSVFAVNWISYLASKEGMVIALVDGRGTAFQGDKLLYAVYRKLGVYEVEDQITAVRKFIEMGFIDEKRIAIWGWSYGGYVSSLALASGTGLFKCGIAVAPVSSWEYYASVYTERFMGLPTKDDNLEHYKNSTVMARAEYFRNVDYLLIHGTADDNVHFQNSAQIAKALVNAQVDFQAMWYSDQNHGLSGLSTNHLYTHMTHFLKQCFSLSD
Method: The plates were read on a PHERAstar® reader with excitation 340 nm and emission 460 nm. Data were analyzed in Genedata Screener®. IC50 values were determined by plotting % inhibition versus log compound concentration and using a one site dose response model.

[3] = target: hFAP (M39-A757) (Homo sapiens (Human), UniProt Q12884); assay: hFAP binding assay (surface plasmon resonance); details: SPR, 20° C.; for hFAP Binding assay k(off) / hFAP Binding assay k(on): single cycle kinetics; for Kd: n = 1 or geometric mean n = 2-4
Chain of hFAP (M39-A757) (Q12884 39-757): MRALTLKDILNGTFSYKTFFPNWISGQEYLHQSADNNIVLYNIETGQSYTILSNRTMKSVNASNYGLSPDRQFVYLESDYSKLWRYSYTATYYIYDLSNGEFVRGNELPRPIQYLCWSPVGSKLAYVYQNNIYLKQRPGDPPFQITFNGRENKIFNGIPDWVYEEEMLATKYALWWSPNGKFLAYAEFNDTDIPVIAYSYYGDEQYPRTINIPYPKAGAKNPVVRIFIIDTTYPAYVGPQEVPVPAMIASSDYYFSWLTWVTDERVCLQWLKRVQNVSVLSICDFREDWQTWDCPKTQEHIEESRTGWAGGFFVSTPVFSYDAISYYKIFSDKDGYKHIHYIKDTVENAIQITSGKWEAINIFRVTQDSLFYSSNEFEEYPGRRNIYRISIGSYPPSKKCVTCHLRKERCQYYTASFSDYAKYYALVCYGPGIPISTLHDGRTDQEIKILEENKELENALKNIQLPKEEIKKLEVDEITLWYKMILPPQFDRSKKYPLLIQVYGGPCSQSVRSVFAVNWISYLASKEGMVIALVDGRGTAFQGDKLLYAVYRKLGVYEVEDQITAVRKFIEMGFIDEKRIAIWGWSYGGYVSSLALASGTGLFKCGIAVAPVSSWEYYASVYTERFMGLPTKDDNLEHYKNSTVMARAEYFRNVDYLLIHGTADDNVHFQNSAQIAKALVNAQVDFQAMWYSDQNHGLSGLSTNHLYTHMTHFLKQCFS

[4] = target: Prolyl endopeptidase, Prolyl Oligopeptidase (hPREP) (Homo sapiens (Human), UniProt P48147); assay: hPrep inhibition assay; assay type: biochemical; details: hPREP 0.6 nM, Z-Gly-Pro-amino-methylcoumarin 50 μM; read-out: PREP IC50
Chain of Prolyl endopeptidase, Prolyl Oligopeptidase (hPREP) (P48147 whole entry): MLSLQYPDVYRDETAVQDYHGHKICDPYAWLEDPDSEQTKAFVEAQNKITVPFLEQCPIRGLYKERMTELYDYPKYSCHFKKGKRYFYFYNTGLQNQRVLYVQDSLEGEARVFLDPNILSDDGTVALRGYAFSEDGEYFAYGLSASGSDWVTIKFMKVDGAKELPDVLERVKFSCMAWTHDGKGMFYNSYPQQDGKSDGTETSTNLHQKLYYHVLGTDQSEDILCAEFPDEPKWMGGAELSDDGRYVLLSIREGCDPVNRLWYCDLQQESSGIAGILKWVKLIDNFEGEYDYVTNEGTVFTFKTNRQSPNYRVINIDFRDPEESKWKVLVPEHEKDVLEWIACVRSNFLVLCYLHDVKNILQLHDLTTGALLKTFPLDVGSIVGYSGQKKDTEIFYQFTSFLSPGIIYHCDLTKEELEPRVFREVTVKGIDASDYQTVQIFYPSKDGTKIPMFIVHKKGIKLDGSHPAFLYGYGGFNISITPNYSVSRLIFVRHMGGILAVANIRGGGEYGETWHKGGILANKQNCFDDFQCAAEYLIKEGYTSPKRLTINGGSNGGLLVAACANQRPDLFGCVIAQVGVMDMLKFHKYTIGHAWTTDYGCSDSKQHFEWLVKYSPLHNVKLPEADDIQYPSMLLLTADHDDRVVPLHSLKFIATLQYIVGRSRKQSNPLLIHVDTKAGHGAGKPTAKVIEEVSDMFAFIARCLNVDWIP
Outline: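 Recombinant human PREP at 0.6 nM final with Z-Gly-Pro-AMC substrate at 50 μM final in Tris-HCl pH 7.5, NaCl, Triton X-100, glutathione; 15 min rt preincubation then 20 min rt reaction in dark. AMC fluorescence (ex 340/em 460 nm); IC50 from one-site dose-response fit of % inhibition.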

[5] = Kinetic solubility; details: kinetic from dmso stock
Method: Kinetic solubility was measured as described in Comput Aided Mol Des 2015, 29, 795.

[6] = Metabolic stability in rat hepatocytes (rHep); details: n = 1 or geometric mean of n = 2-3
[7] = Metabolic stability in human liver microsomes (HLM); details: human
Method: Metabolic stability in HLM was measured as described in J Comput Aided Mol Des 2015, 29, 795.

[8] = Solubility, kinetic solubility, n = 1 or average of n = 2-3
[9] = HLM CLint, n = 1 or average of n = 2-3

Chain of FAP (Q12884 38-760): as the sequence (Q12884 38-760) above

| Compound | IC50 ([1]; hFAP […]) [nM] | IC50 [2] [nM] | hFAP Binding assay k(off) [3] [s⁻¹] | hFAP Binding assay k(on) [3] [M⁻¹ s⁻¹] | Kd [3] [nM] | IC50 [4] [nM] | solubility [5, 8] [µM] | rHep CLint [6] [μL/min/1E6] | microsomal CLint [7, 9] [µL/min/mg] | solubility [5] [µM] | microsomal CLint [7] [µL/min/mg] | IC50 ([1]; hFAP 0.24 nM) [nM] |
| --- | --- | --- | --- | --- | --- | --- | --- | --- | --- | --- | --- | --- |
| N#C[C@@H]1CSCN1C(=O)CNC(=O)c1ccnc2ccc(N3CCSCC3)cc12 [Example 3, (R)—N-(2-(4-Cyanothiazolidin-3-yl)-2-oxoethyl)-6-thiomorpholinoquinoline-4-carboxamide] | 0.24 | 0.13 | 0.0004 | 4100000 | 0.095 | 690 | 700 (≈ 299 µg/mL) | 28 | 75 |  |  |  |
| N#C[C@@H]1CSCN1C(=O)CNC(=O)c1ccnc2ccc(N3C[C@@H](F)[C@H](F)C3)cc12 [Example 214, N-(2-((R)-4-Cyanothiazolidin-3-yl)-2-oxoethyl)-6-((3R,4R)-3,4-difluoro-pyrrolidin-1-yl)quinoline-4-carboxamide] | 0.2 | 0.079 | 0.000092 | 2900000 | 0.043 | 280 |  | 15 |  |  |  |  |
| N#C[C@@H]1CSCN1C(=O)CNC(=O)c1ccnc2ccc(N3CCC4(CC4)C3)cc12 [Example 49, (R)—N-(2-(4-Cyanothiazolidin-3-yl)-2-oxoethyl)-6-(5-azaspiro[2.4]heptan-5-yl)quinoline-4-carboxamide] | 0.19 | 0.041 | 0.00017 | 8800000 | 0.02 | 340 |  | 48 |  | 13 (≈ 5.48 µg/mL) | 58 |  |
| Cc1cccc(C2CN(c3ccc4nccc(C(=O)NCC(=O)N5CSC[C@H]5C#N)c4c3)C2)c1 [Example 186, (R)—N-(2-(4-Cyanothiazolidin-3-yl)-2-oxoethyl)-6-(3-(m-tolyl)azetidin-1-yl)quinoline-4-carboxamide] | 0.27 | 0.1 |  |  | 0.045 | 150 | 130 (≈ 61.3 µg/mL) | 24 | 70 |  |  |  |
| C[C@H]1CC(F)(F)CCN1c1ccc2nccc(C(=O)NCC(=O)N3CSC[C@H]3C#N)c2c1 (mixture of isomers) [Example 44, N-(2-((R)-4-Cyanothiazolidin-3-yl)-2-oxoethyl)-6-((RS)-4,4-difluoro-2-methylpiperidin-1-yl)quinoline-4-carboxamide] |  | 0.074 | 0.000072 | 1700000 | 0.042 | 540 | 140 | 160 | 220 |  |  | 0.22 |
| N#C[C@@H]1CSCN1C(=O)CNC(=O)c1ccnc2ccc(N3CCCC4(CC4)C3)cc12 [Example 46, (R)—N-(2-(4-Cyanothiazolidin-3-yl)-2-oxoethyl)-6-(5-azaspiro[2.5]octan-5-yl)quinoline-4-carboxamide] | 0.29 | 0.082 | 0.000062 | 3000000 | 0.02 | 110 |  | 72 |  | 190 (≈ 82.8 µg/mL) | 190 |  |
| N#C[C@@H]1CSCN1C(=O)CNC(=O)c1ccnc2ccc(N3CCC(F)(F)CC3)cc12 [Example 35, (R)—N-(2-(4-Cyanothiazolidin-3-yl)-2-oxoethyl)-6-(4,4-difluoropiperidin-1-yl)quinoline-4-carboxamide] | 0.47 | 0.17 | 0.00010 | 900000 | 0.1 | 1700 | 600 (≈ 267 µg/mL) | 64 | 63 |  |  |  |
